Here are results for 3 molecules from patent US9193990B2, “Bioluminescent metal ion assay” (priority 2013, dated 2015).

In assay [1] the test system is firefly luciferase-holoCA fusion protein.
Source text: The free zinc concentration can be related to the amount of orange emission, or preferably to the levels of luciferase emission and ultimate acceptor emission, or their ratio, which is proportional to zinc concentration.
The next assay concerns apoNanoLuc-CA. Briefly: bioluminescence emission of NanoLuc-CA with fluorescent sulfonamide and competing sulfonamide (FIG. 4). The class given is binding, human. To be noted: 19 nM free Zn, after addition of competing nonfluorescent sulfonamide. The text has this: In another preferred embodiment the luciferase gene fused to the human carbonic anhydrase II gene is from a variant of the luciferase isolated from the deep sea shrimp Oplophorus gracilirostris (offered commercially by Promega as Nanoluc), and the luciferin is a coelenterazine derivative called furimazine (“Engineered Luciferase Reporter from a Deep Sea Shrimp Utilizing a Novel Imidazopyrazinone Substrate” by Mary P. Hall †, James Unch ‡, Brock F. Binkowski †, Michael P. Valley †, Braeden L. Butler †, Monika G. Wood †, Paul Otto †, Kristopher Zimmerman †, Gediminas Vidugiris †, Thomas Machleidt †, Matthew B. Robers †, Hélène A. Benink †, Christopher T. Eggers †, Michael R. Slater †, Poncho L. Meisenheimer ‡, Dieter H. Klaubert ‡, Frank Fan †, Lance P. Encell *†, and Keith V. Wood † ACS Chem. Biol., 2012, 7 (11), pp 1848-1857DOI: 10.1021/cb3002478). […] An important advantage of this ratiometric approach is that it is essentially independent of time-dependent changes in bioluminescence emission, which are frequently observed. […]

For assay [2], the target named is wild type human carbonic anhydrase II (Homo sapiens, UniProt P00918). Particulars: free zinc ion, read-out: KD for binding to carbonic anhydrase; cited from earlier work.

In the case of `CC(=O)Nc1nnc(S(N)(=O)=O)s1` [acetazolamide], the “displacement of LISSAMINE rhodamine sulfonamide from holoCA sulfonamide binding site” value in assay [1] is recorded as “completely displaced”.

Consider “fluorescein thioureidyl ethyl phenyl sulfonamide [fluorescein sulfonamide]”, for which the “specificity of sulfonamide binding” value in the assay on apoNanoLuc-CA was “specific”.

Broadly, the Kd is the concentration at which binding is half-saturated. With zinc ion, the Kd in assay [2] was around 4 pM.
